Laboratory results reported in patent US20260242371A1, “LIPID PRODRUGS OF BROM[…] USES THEREOF” (priority 2023, published 2026).

Biological target: T1, recombinant human monoacylglyceride lipase (rhMAGL) (Homo sapiens, UniProt Q99685)
T1 sequence (Q99685 1-303): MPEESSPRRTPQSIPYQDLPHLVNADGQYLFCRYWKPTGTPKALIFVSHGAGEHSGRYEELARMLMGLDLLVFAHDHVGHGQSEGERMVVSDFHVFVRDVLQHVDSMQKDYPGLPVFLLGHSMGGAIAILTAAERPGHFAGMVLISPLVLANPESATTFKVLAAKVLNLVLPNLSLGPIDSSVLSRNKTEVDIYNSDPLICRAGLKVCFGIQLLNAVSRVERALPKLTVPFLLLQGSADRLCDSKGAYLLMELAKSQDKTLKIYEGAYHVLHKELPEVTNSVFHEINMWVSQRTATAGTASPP
Test: In vitro monoglyceride stability of lipid prodrugs with lipoprotein lipase and rhMAGL
Assay type: in vitro ADME
Details: 50 μM prodrug, 10 mg/mL BSA, LPL 300 units/mL, 180 vs 30 minutes, 37° C., scale −10 to 10
Experimental: The stability of lipid prodrugs of 2-bromo-LSD was evaluated in the presence or absence of recombinant human monoacylglyceride lipase (rhMAGL). 50 µM of prodrug was incubated in 10 mg/mL BSA supplemented with lipoprotein lipase (300 units/mL) and rhMAGL (0-0.5 μg/mL). The concentration of MAGL may be adjusted based on observed activity. Reactions were initiated via the addition of prodrug and incubated at 37° C. for 180 minutes. Aliquots were removed at 30, 60, 120, and 180 minutes and the reaction quenched with the addition of cold acetonitrile spiked with internal standard(s) (1:3 sample to acetonitrile). Samples were vortexed and centrifuged and the supernatant transferred and diluted in 0.1% formic acid water (1:3 supernatant to 0.1% formic acid water). Samples were analyzed via LC-MS. Monoglyceride stability was calculated using the following equations:
LPL MG Ratio=MG Peak Area at 180 minutes for LPL only/MG Peak area at 30 minutes for LPL only
rhMAGLMG Ratio=MG Peak Area at 180 minutes for LPLand rhMAGL/MG Peak Area at 30 minutes for LPLand rhMAGL
MG Stability=((rhMAGLMG Ratio−(1−LPL MG Ratio))*10
Stability is calculated on a scale of −10 to 10, with 10 representing 100% monoglyceride remaining (i.e., highest stability) and −10 representing 100% monoglyceride loss (i.e., lowest stability). Monoglyceride stability is represented by the following categories, wherein A is a stability score of 5 to 10, B is a stability score of 0 to 5, C is a stability score of −5 to 0, and D is a stability score of −5 to −10.

Structure (SMILES)	Monoacylglyceride Stability
CCCCCCCC(=O)OCC(COC(=O)CCCCCCC)OC(=O)CC(C)CC(=O)OCOC(=O)n1c(Br)c2c3c(cccc31)C1=C[C@@H](C(=O)N(CC)CC)CN(C)[C@@H]1C2 (stereo partly shown) [Compound I-7, 2BL-CASI-C5bMe-2-TG-octanoate]	A (A is a stability score of 5 to 10)
CCCCCCCC/C=C\CCCCCCCC(=O)OCC(COC(=O)CCCCCCC/C=C\CCCCCCCC)OC(=O)CC(C)CC(=O)OCCCCC(=O)n1c(Br)c2c3c(cccc31)C1=C[C@@H](C(=O)N(CC)CC)CN(C)[C@@H]1C2 (stereo partly shown) [Compound I-17, 2BL-FSI5-C5bMe-2-TG-oleate]	A (A is a stability score of 5 to 10)
CCCCCCCC(=O)OCC(COC(=O)CCCCCCC)OC(=O)CC1(CC(=O)OCCCC(=O)n2c(Br)c3c4c(cccc42)C2=C[C@@H](C(=O)N(CC)CC)CN(C)[C@@H]2C3)CC1 [I-15′, 2BL-FSI4-C5bcPr-2-TG-octanoate]	A (A is a stability score of 5 to 10)
CCCCCCCC(=O)OCC(COC(=O)CCCCCCC)OC(=O)CC(C)(C)CCC(=O)OCn1c(Br)c2c3c(cccc31)C1=C[C@@H](C(=O)N(CC)CC)CN(C)[C@@H]1C2 [Compound I-27, 2BL-ASI-C6bbGMe-2-TG-octanoate]	D (D is a stability score of −5 to −10)
CCCCCCCC/C=C\CCCCCCCC(=O)OCC(COC(=O)CCCCCCC/C=C\CCCCCCCC)OC(=O)CC(C)CC(=O)n1c(Br)c2c3c(cccc31)C1=C[C@@H](C(=O)N(CC)CC)CN(C)[C@@H]1C2 (stereo partly shown) [Compound I-1, 2BL-C5bMe-2-TG-oleate]	A (A is a stability score of 5 to 10)
CCCCCCCC(=O)OCC(COC(=O)CCCCCCC)OC(=O)CC1(CC(=O)OCCCCC(=O)n2c(Br)c3c4c(cccc42)C2=C[C@@H](C(=O)N(CC)CC)CN(C)[C@@H]2C3)CC1 [Compound I-18, 2BL-FSI5-C5bcPr-2-TG-octanoate]	A (A is a stability score of 5 to 10)
CCCCCCCC(=O)OCC(COC(=O)CCCCCCC)OC(=O)CC1(CC(=O)OCn2c(Br)c3c4c(cccc42)C2=C[C@@H](C(=O)N(CC)CC)CN(C)[C@@H]2C3)CC1 [Compound I-25, 2BL-ASI-C5bcPr-2-TG-octanoate]	D (D is a stability score of −5 to −10)
CCCCCCCC(=O)OCC(COC(=O)CCCCCCC)OC(=O)CC(C)(C)CC(=O)OCCCCC(=O)n1c(Br)c2c3c(cccc31)C1=C[C@@H](C(=O)N(CC)CC)CN(C)[C@@H]1C2 [Compound I-16, 2BL-FSI5-C5bbGMe-2-TG-octanoate]	A (A is a stability score of 5 to 10)
CCCCCCCC/C=C\CCCCCCCC(=O)OCC(COC(=O)CCCCCCC/C=C\CCCCCCCC)OC(=O)CC(C)CCCCC(=O)OCn1c(Br)c2c3c(cccc31)C1=C[C@@H](C(=O)N(CC)CC)CN(C)[C@@H]1C2 (stereo partly shown) [Compound I-5, 2BL-ASI-C8bMe-2-TG-oleate]	C (C is a stability score of −5 to 0)
CCCCCCCC/C=C\CCCCCCCC(=O)OCC(COC(=O)CCCCCCC/C=C\CCCCCCCC)OC(=O)CC(C)CC(=O)OCn1c(Br)c2c3c(cccc31)C1=C[C@@H](C(=O)N(CC)CC)CN(C)[C@@H]1C2 (stereo partly shown) [Compound I-4, 2BL-ASI-C5bMe-2-TG-oleate]	D (D is a stability score of −5 to −10)
CCCCCCCC/C=C\CCCCCCCC(=O)OCC(COC(=O)CCCCCCC/C=C\CCCCCCCC)OC(=O)CC(C)CC(=O)Oc1ccc(COC(=O)n2c(Br)c3c4c(cccc42)C2=C[C@@H](C(=O)N(CC)CC)CN(C)[C@@H]2C3)cc1 (stereo partly shown) [Compound I-21, 2BL-CPHB-C5bMe-2-TG-oleate]	A (A is a stability score of 5 to 10)
CCCCCCCC/C=C\CCCCCCCC(=O)OCC(COC(=O)CCCCCCC/C=C\CCCCCCCC)OC(=O)CC(C)CC(=O)Oc1ccc(Cn2c(Br)c3c4c(cccc42)C2=C[C@@H](C(=O)N(CC)CC)CN(C)[C@@H]2C3)cc1 (stereo partly shown) [Compound I-20, 2BL-PHB-C5bMe-2-TG-oleate]	A (A is a stability score of 5 to 10)
CCCCCCCC(=O)OCC(COC(=O)CCCCCCC)OC(=O)CC(C)(C)CCC(=O)OCCCCC(=O)n1c(Br)c2c3c(cccc31)C1=C[C@@H](C(=O)N(CC)CC)CN(C)[C@@H]1C2 [Compound I-19, 2BL-FSI5-C6bbGMe-2-TG-octanoate]	A (A is a stability score of 5 to 10)
CCCCCCCC(=O)OCC(COC(=O)CCCCCCC)OC(=O)CC1(CC(=O)n2c(Br)c3c4c(cccc42)C2=C[C@@H](C(=O)N(CC)CC)CN(C)[C@@H]2C3)CC1 [Compound I-26, 2BL-C5bcPr-2-TG-octanoate]	A (A is a stability score of 5 to 10)
CCCCCCCC/C=C\CCCCCCCC(=O)OCC(COC(=O)CCCCCCC/C=C\CCCCCCCC)OC(=O)CC(C)CCCCC(=O)n1c(Br)c2c3c(cccc31)C1=C[C@@H](C(=O)N(CC)CC)CN(C)[C@@H]1C2 (stereo partly shown) [Compound I-2, 2BL-C8bMe-2-TG-oleate]	A (A is a stability score of 5 to 10)
CCCCCCCC(=O)OCC(COC(=O)CCCCCCC)OC(=O)CC(C)(C)CC(=O)OCn1c(Br)c2c3c(cccc31)C1=C[C@@H](C(=O)N(CC)CC)CN(C)[C@@H]1C2 [Compound I-28, 2BL-ASI-C5bbGMe-2-TG-octanoate]	D (D is a stability score of −5 to −10)
CCCCCCCC/C=C\CCCCCCCC(=O)OCC(COC(=O)CCCCCCC/C=C\CCCCCCCC)OC(=O)CC(C)CC(=O)OCCCC(=O)n1c(Br)c2c3c(cccc31)C1=C[C@@H](C(=O)N(CC)CC)CN(C)[C@@H]1C2 (stereo partly shown) [Compound I-14, 2BL-FSI4-C5bMe-2-TG-oleate]	A (A is a stability score of 5 to 10)
CCCCCCCC(=O)OCC(COC(=O)CCCCCCC)OC(=O)CC1(CC(=O)OCOC(=O)n2c(Br)c3c4c(cccc42)C2=C[C@@H](C(=O)N(CC)CC)CN(C)[C@@H]2C3)CC1 [I-9′, 2BL-CASI-C5bcPr-2-TG-octanoate]	A (A is a stability score of 5 to 10)
CCCCCCCC/C=C\CCCCCCCC(=O)OCC(COC(=O)CCCCCCC/C=C\CCCCCCCC)OC(=O)CC(C)CCCCCCC(=O)n1c(Br)c2c3c(cccc31)C1=C[C@@H](C(=O)N(CC)CC)CN(C)[C@@H]1C2 (stereo partly shown) [Compound I-24, 2BL-C10bMe-2-TG-oleate]	A (A is a stability score of 5 to 10)
CCCCCCCC/C=C\CCCCCCCC(=O)OCC(COC(=O)CCCCCCC/C=C\CCCCCCCC)OC(=O)CC(C)CCCCCCC(C)CC(=O)n1c(Br)c2c3c(cccc31)C1=C[C@@H](C(=O)N(CC)CC)CN(C)[C@@H]1C2 (stereo partly shown) [Compound I-3, 2BL-C12b′bMe-2-TG-oleate]	B (B is a stability score of 0 to 5)
CCCCCCCC/C=C\CCCCCCCC(=O)OCC(COC(=O)CCCCCCC/C=C\CCCCCCCC)OC(=O)CC(C)CCCCCCCCC(=O)OCn1c(Br)c2c3c(cccc31)C1=C[C@@H](C(=O)N(CC)CC)CN(C)[C@@H]1C2 (stereo partly shown) [Compound I-6, 2BL-ASI-C12bMe-2-TG-oleate]	C (C is a stability score of −5 to 0)
CCCCCCCC(=O)OCC(COC(=O)CCCCCCC)OC(=O)CC(C)(C)CCC(=O)OCCCC(=O)n1c(Br)c2c3c(cccc31)C1=C[C@@H](C(=O)N(CC)CC)CN(C)[C@@H]1C2 [Compound I-22, 2BL-FSI4-C6bbGMe-2-TG-octanoate]	A (A is a stability score of 5 to 10)
CCCCCCCC(=O)OCC(COC(=O)CCCCCCC)OC(=O)CC(C)(C)CC(=O)OCCCC(=O)n1c(Br)c2c3c(cccc31)C1=C[C@@H](C(=O)N(CC)CC)CN(C)[C@@H]1C2 [Compound I-15, 2BL-FSI4-C5bbGMe-2-TG-octanoate]	B (B is a stability score of 0 to 5)
CCCCCCCC(=O)OCC(COC(=O)CCCCCCC)OC(=O)CC(C)(C)CC(=O)OCOC(=O)n1c(Br)c2c3c(cccc31)C1=C[C@@H](C(=O)N(CC)CC)CN(C)[C@@H]1C2 [Compound I-9, 2BL-CASI-C5bbGMe-2-TG-octanoate]	A (A is a stability score of 5 to 10)
CCCCCCCC(=O)OCC(COC(=O)CCCCCCC)OC(=O)CC(C)(C)CCC(=O)OCOC(=O)n1c(Br)c2c3c(cccc31)C1=C[C@@H](C(=O)N(CC)CC)CN(C)[C@@H]1C2 [Compound I-23, 2BL-CASI-C6bbGMe-2-TG-octanoate]	A (A is a stability score of 5 to 10)
